Literature values, collected in US20240156808A1, “Compositions and methods to improve the therapeutic benefit of suboptimally chemical compounds and biological therapies including substituted camptothecins such as irinotecan and topotecan for the treatment of benign and neoplastic hyperproliferative disease conditions, infections, inflammatory and …” (Edison Oncology, priority 2021, published 2024).

Columns and labels:
[1] = molecular target: T1, CES2 (Homo sapiens, UniProt O00748); settings: CES2 versus CES1
T1 sequence (O00748 27-559): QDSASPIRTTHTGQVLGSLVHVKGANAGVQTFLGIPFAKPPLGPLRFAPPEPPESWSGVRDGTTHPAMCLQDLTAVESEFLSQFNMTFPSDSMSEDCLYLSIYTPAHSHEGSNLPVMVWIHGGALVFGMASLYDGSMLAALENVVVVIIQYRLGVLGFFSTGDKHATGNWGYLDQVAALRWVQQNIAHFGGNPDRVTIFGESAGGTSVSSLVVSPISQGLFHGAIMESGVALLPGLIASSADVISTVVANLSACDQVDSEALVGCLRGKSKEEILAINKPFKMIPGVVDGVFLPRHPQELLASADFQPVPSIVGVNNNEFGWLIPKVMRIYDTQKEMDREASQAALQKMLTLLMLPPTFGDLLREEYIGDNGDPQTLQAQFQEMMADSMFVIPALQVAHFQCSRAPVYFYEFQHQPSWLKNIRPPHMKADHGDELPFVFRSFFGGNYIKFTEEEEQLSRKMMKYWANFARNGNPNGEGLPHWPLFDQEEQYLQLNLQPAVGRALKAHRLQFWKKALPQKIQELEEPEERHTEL

## CCc1c2c(nc3ccc(O)cc13)-c1cc3c(c(=O)n1C2)COC(=O)[C@]3(O)CC [SN-38]
SN-38
  elimination half-life: 6 to 32 h
After infusion
  time to peak plasma concentration: two
In vivo
  distribution half-life: about 8 minutes

## CCc1c2c(nc3ccc(OC(=O)N4CCC(N5CCCCC5)CC4)cc13)-c1cc3c(c(=O)n1C2)COC(=O)[C@]3(O)CC [irinotecan, (S)-4,11-diethyl-3,4,12,14-tetrahydro-4-hydroxy-3,14-dioxo1H-pyrano[3′,4′:6,7]-indolizino[1,2-b]quinolin-9-yl-[1,4′bipiperidine]-1′-carboxylate]
In the liver by CES1 and CES2, also in plasma by butyrylcholinesterase
  fraction of irinotecan hydrolyzed to SN-38: 2-5%
[1]
  affinity of CES2 for irinotecan relative to CES1: 12.5 fold
